One experiment concerns the target T1, kinase domain of cKIT (Homo sapiens, UniProt P10721).
T1 construct: The kinase domain of cKIT was assayed in 50 mM Hepes; purchased Upstate 14-559
Briefly: Inhibition of cKIT kinase signaling in an in vitro biochemical assay (alphascreen). To be noted: tested at about 1 μM, read-out: cKit percent inhibition.

For experiment [1], the target named is T2, cytoplasmic domain of the human CSF-1R (Homo sapiens, UniProt P07333).
T2 construct: Recombinant protein corresponding to the cytoplasmic domain of the human CSF-1R; purchased Invitrogen Corporation, Carlsbad, Calif; PV3249
T2 sequence (P07333 539-972 limits assumed): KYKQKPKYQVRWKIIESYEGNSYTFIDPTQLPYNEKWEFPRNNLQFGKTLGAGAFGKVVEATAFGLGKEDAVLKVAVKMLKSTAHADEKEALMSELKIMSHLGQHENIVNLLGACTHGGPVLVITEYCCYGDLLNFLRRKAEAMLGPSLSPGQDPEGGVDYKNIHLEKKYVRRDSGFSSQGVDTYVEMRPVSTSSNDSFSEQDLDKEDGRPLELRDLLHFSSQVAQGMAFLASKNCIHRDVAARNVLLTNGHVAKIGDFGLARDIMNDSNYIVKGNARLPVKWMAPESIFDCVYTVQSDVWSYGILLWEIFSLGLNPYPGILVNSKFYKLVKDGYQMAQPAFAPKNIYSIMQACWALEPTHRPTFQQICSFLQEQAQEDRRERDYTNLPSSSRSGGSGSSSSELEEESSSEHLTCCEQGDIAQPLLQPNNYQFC
Briefly: In vitro kinase assay for colony stimulating factor-1 receptor (AlphaScreen). Format: biochemical. To be noted: tested at about 1 μM, read-out: CSF-1R percent inhibition. The method in brief: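 4 nM enzyme, 1 μM ATP; buffer 50 mM Hepes pH 7.5, 5 mM MgCl2, 10 mM MnCl2, 1.0 mM DTT, 0.1% BSA, 0.01% Tween 80. Readout: AlphaScreen, PT66 acceptor/streptavidin donor, overnight.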
(In Alpha technology, singlet oxygen from a donor bead excites a nearby acceptor bead.)

For experiment [2], the target named is T3, full-length human CSF-1R receptor (Homo sapiens, UniProt P07333).
T3 construct: transfected with the full-length human CSF-1R receptor cloned in house; expressed in transfected cells; host or cells: HEK293H (Invitrogen Cat. #11631017)
T3 sequence (P07333 20-972): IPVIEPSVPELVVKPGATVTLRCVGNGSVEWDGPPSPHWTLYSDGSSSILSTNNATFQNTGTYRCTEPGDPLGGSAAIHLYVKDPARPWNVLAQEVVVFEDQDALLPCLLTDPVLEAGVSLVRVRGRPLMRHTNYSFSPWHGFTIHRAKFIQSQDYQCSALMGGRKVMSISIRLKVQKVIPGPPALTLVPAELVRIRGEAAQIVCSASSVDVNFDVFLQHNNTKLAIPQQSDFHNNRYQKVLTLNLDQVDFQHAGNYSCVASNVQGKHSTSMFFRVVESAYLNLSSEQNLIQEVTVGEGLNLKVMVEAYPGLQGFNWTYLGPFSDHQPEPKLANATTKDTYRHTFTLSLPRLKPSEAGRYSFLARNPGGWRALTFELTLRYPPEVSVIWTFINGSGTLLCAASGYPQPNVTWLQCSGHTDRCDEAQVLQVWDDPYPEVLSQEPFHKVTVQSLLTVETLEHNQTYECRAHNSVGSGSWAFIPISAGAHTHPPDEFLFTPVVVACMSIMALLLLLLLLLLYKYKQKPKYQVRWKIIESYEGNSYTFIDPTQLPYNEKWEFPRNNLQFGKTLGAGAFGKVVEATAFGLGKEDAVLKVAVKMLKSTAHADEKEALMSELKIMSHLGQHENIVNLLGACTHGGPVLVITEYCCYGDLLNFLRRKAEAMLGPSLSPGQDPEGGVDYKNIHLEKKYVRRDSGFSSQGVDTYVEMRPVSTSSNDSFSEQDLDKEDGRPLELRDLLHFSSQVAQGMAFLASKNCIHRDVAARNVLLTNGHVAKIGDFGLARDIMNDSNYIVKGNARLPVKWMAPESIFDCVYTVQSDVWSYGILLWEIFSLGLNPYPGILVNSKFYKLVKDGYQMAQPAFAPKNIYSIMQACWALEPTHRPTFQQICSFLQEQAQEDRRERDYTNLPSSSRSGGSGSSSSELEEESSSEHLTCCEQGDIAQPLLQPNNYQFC
Nature of the experiment: In vitro inhibition of CSF-1R receptor tyrosine phosphorylation in transfected HEK293H cells stimulated with MCSF. Format: cell-based. To be noted: HEK293-H, tested at about 1 μM, read-out: pCSF1R percent inhibition. The protocol: The lysate was then transferred to total CSF-1R antibody coated 96-well plates that had already been blocked with 3% Blocker A from Mesoscale discovery (MSD) for 2 hours and washed afterwards. Lysates were incubated overnight at 4° C. and the plates were then washed 4× with MSD Tris Wash Buffer. […] The plates were read on the Sector 6000 instrument (MSD). Raw data was imported in Abase and EC50s calculated with XL-fit data analysis software.

The subject of experiment [3] is MNFS60 (murine AML cells). Briefly: Cell viability assay in MCSF dependent MNFS60 cells (Cell Titer Glo). Format: cell-based. To be noted: Mus musculus, tested at about 1 μM, read-out: M-NFS-60 CP percent inhibition. The essentials: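 Compounds were serially diluted 3-fold in DMSO to 500× final and added to cells with MCSF at 10 ng/ml final. After 72 hrs at 37° C. under 5% CO2, viable cells were quantified by CellTiter-Glo luminescence; triplicate wells gave EC50 values by curve fitting.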
For orientation: In ATP-based viability assays light output follows the ATP content of the culture.

A further experiment addresses T4, kinase domain of PDGFRβ (Homo sapiens, UniProt P09619).
T4 construct: The kinase domain of PDGFRβ was assayed in 50 mM Hepes; purchased Invitrogen P3082
Briefly: Inhibition of PDGFRb kinase signaling in an in vitro biochemical assay (alphascreen). To be noted: tested at about 1 μM, read-out: PDGFRβ percent inhibition.

Where two headings read alike, the source gives them in different places.

T1 sequence (P10721 589-937 limits assumed): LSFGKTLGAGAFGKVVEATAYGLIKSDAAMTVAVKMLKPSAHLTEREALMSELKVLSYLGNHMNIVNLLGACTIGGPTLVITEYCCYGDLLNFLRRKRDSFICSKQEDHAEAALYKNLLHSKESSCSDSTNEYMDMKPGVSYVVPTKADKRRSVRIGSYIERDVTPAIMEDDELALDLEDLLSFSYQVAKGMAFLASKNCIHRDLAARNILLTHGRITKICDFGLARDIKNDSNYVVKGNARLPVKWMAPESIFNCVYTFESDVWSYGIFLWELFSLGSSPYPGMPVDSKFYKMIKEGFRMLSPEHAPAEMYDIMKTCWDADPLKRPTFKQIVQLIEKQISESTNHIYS
T4 sequence (P09619 600-962 limits assumed): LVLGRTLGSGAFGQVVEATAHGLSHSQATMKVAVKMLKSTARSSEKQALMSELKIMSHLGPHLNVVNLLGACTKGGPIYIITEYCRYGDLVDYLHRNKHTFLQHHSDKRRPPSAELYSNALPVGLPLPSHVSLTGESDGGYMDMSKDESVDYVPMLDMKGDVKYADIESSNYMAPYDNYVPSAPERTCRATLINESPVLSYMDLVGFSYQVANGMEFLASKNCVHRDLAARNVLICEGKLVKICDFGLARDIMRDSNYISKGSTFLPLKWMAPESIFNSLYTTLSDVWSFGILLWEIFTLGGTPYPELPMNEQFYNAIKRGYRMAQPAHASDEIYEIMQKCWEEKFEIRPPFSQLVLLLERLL

Consider `CNC(=O)c1cc(Oc2ccc3nc(NCc4cccc(Cl)c4Cl)oc3c2)ccn1` [Compound 77, 4-[2-(2,3-Dichloro-benzylamino)-benzooxazol-6-yloxy]-pyridine-2-carboxylic acid methylamide], for which the inhibition (as a rule, the percentage by which the read-out fell short of the control) at 1 µM at kinase domain of cKIT was 92%; in experiment [1] it was 100%; in experiment [2] (HEK293H cells), 94%; in experiment [3] (MNFS60 cells), 79%; at kinase domain of PDGFRβ it was 15%.

For `CNC(=O)c1cc(Oc2ccc3nc(NCc4ccccc4N4CCCCC4)oc3c2)ccn1` [Compound 118, 4-[2-(2-Piperidin-1-yl-benzylamino)-benzooxazol-6-yloxy]-pyridine-2-carboxylic acid methylamide], the inhibition at 1 µM on kinase domain of cKIT was 95%; in experiment [1], 100%; in experiment [2] (HEK293H cells), 69%; in experiment [3] (MNFS60 cells), 83%; on kinase domain of PDGFRβ, 49%.

For `CNC(=O)c1cc(Oc2ccc3nc(N[C@H](CO)C(C)C)sc3c2)ccn1` [Compound 102], the inhibition at 1 µM at kinase domain of cKIT (compounds of Table 3) came to 0%; in experiment [1] (compounds of Table 3) it was 100%; in experiment [2] (compounds of Table 3) it was 88%; in experiment [3] (compounds of Table 3), 75%; on kinase domain of PDGFRβ (compounds of Table 3), 9%.

As to `CCc1nc(-c2cc(Oc3ccc4nc(N[C@@H]5CCCC[C@H]5O)sc4c3)ccn2)[nH]c1CC` [Example 266, (1R,2R)-2-(6-(2-(4,5-diethyl-1H-imidazol-2-yl)pyridin-4-yloxy)benzo[d]thiazol-2-ylamino)cyclohexanol], the inhibition at 1 µM at kinase domain of cKIT (compounds of Table 3) stood at 18%; in experiment [1] (compounds of Table 3), 100%; in experiment [2] (compounds of Table 3), 94%; in experiment [3] (compounds of Table 3), 100%; on kinase domain of PDGFRβ (compounds of Table 3) it was 21%.

For the compound `CN(C)c1ncc(-c2cc(Oc3ccc4nc(N[C@@H]5CCCC[C@H]5O)sc4c3)ccn2)cn1` [Example 286, (1R,2R)-2-(6-(2-(2-(dimethylamino)pyrimidin-5-yl)pyridin-4-yloxy)benzo[d]thiazol-2-ylamino)cyclohexanol], the inhibition at 1 µM at kinase domain of cKIT (compounds of Table 3) amounted to 23%; in experiment [1] (compounds of Table 3), 100%; in experiment [2] (compounds of Table 3), 94%; in experiment [3] (compounds of Table 3), 71%; on kinase domain of PDGFRβ (compounds of Table 3) it was 0%.

Take `Cc1c[nH]c(-c2cc(Oc3ccc4nc(N[C@@H]5CCCC[C@H]5O)sc4c3)ccn2)n1` [Example 231, (1R,2R)-2-(6-(2-(4-methyl-1H-imidazol-2-yl)pyridin-4-yloxy)benzo[d]thiazol-2-ylamino)cyclohexanol]: the inhibition at 1 µM was determined as 9% on kinase domain of cKIT (compounds of Table 3); 100% in experiment [1] (compounds of Table 3); 99% in experiment [2] (compounds of Table 3); 100% in experiment [3] (compounds of Table 3); 49% at kinase domain of PDGFRβ (compounds of Table 3).

On to `O[C@@H]1CCCC[C@H]1Nc1nc2ccc(Oc3ccnc(-c4ccncc4)c3)cc2s1` [Example 280, (1R,2R)-2-(6-(2,4'-bipyridin-4-yloxy)benzo[d]thiazol-2-ylamino)cyclohexanol], for which the inhibition at 1 µM worked out at 11% on kinase domain of cKIT (compounds of Table 3); 100% in experiment [1] (compounds of Table 3); 65% in experiment [2] (compounds of Table 3); 100% in experiment [3] (compounds of Table 3); 22% at kinase domain of PDGFRβ (compounds of Table 3).

For the compound `CNC(=O)c1cc(Oc2ccc3nc(NCc4ccc(OC)c(OC)c4Cl)oc3c2)ccn1` [Compound 117, 4-[2-(2-Chloro-3,4-dimethoxy-benzylamino)-benzooxazol-6-yloxy]-pyridine-2-carboxylic acid methylamide], the inhibition at 1 µM on kinase domain of cKIT amounted to 96%; in experiment [1] it was 100%; in experiment [2] (HEK293H cells), 88%; in experiment [3] (MNFS60 cells), 61%; on kinase domain of PDGFRβ, 0%.

`CNC(=O)c1cc(Oc2ccc3nc(N[C@H](C)c4ccccc4OC)oc3c2)ccn1` [Compound 31, 4-{2-[(R)-1-(2-Methoxy-phenyl)-ethylamino]-benzooxazol-6-yloxy}-pyridine-2-carboxylic acid methylamide]: the inhibition at 1 µM stood at 18% on kinase domain of cKIT, 100% in experiment [1], 79% in experiment [2] (HEK293H cells) and 57% in experiment [3] (MNFS60 cells).

For `CNC(=O)c1cc(Oc2ccc3nc(NCc4ccccc4N4CCOCC4)oc3c2)ccn1` [Compound 88, 4-[2-(2-Morpholin-4-yl-benzylamino)-benzooxazol-6-yloxy]-pyridine-2-carboxylic acid methylamide], the inhibition at 1 µM was 98% at kinase domain of cKIT, 100% in experiment [1], 96% in experiment [2] (HEK293H cells) and 100% in experiment [3] (MNFS60 cells).

As to `CNC(=O)c1cc(Oc2ccc3nc(NCc4ccccc4N(C)C)oc3c2)ccn1` [Compound 85, 4-[2-(2-Dimethylamino-benzylamino)-benzooxazol-6-yloxy]-pyridine-2-carboxylic acid methylamide], the inhibition at 1 µM is 79% on kinase domain of cKIT, 99% in experiment [1], 98% in experiment [2] (HEK293H cells) and 100% in experiment [3] (MNFS60 cells).

Regarding `CNC(=O)c1cc(Oc2ccc3nc(NCc4cccc(OC)c4OC)oc3c2)ccn1` [Compound 91, 4-[2-(2,3-Dimethoxy-benzyl-amino)-benzooxazol-6-yloxy]-pyridine-2-carboxylic acid methylamide], the inhibition at 1 µM at kinase domain of cKIT came to 93%; in experiment [1] it was 99%; in experiment [2] (HEK293H cells) it was 97%; in experiment [3] (MNFS60 cells), 87%.

On to `CNC(=O)c1cc(Oc2ccc3nc(N[C@H](C)c4cccc5ccccc45)oc3c2)ccn1` [Compound 18, 4-[2-((R)-1-Naphthalen-1-yl-ethylamino)-benzooxazol-6-yloxy]-pyridine-2-carboxylic acid methylamide], for which the inhibition at 1 µM in experiment [1] is 100%; in experiment [2] (HEK293H cells) it was 74%; in experiment [3] (MNFS60 cells), 91%; on kinase domain of PDGFRβ it was 35%.

`CC(=O)Nc1cc(Oc2ccc3nc(NCC4CCCCC4)oc3c2)ccn1` [Compound 34, N-{4-[2-(Cyclohexylmethyl-amino)-benzooxazol-6-yloxy]-pyridin-2-yl}-acetamide]: the inhibition at 1 µM amounted to 99% in experiment [1], 65% in experiment [2] (HEK293H cells), 68% in experiment [3] (MNFS60 cells) and 89% on kinase domain of PDGFRβ.

For `CNC(=O)c1cc(Oc2ccc3nc(NCc4ccccc4F)oc3c2)ccn1` [Compound 16, 4-[2-(2-Fluoro-benzylamino)-benzooxazol-6-yloxy]-pyridin-2-carboxylic acid methylamide], the inhibition at 1 µM in experiment [1] was 99%; in experiment [2] (HEK293H cells) it was 81%; in experiment [3] (MNFS60 cells), 25%; on kinase domain of PDGFRβ it was 20%.

Regarding `CNC(=O)c1cc(Oc2ccc3nc(Nc4ccc(OC)cc4OC)oc3c2)ccn1` [Compound 28, 4-[2-(2,4-Dimethoxy-phenyl-amino)-benzooxazol-6-yl-oxy]-pyridine-2-carboxylic acid methylamide], the inhibition at 1 µM stood at 99% in experiment [1], 88% in experiment [2] (HEK293H cells), 98% in experiment [3] (MNFS60 cells) and 98% on kinase domain of PDGFRβ.

Consider `CNC(=O)c1cc(Oc2ccc3nc(NCC4CCCCC4)oc3c2)ccn1` [Compound 21, 4-[2-(Cyclohexylmethyl-amino)-benzooxazol-6-yloxy]-pyridine-2-carboxylic acid methylamide], for which the inhibition at 1 µM in experiment [1] came out at 99%; in experiment [2] (HEK293H cells), 65%; in experiment [3] (MNFS60 cells), 55%; on kinase domain of PDGFRβ, 0%.

Turning to `COc1cc2nccc(Oc3ccc4nc(N[C@H](C)c5ccccc5)oc4c3)c2cc1OC` [Compound 14, [6-(6,7-Dimethoxy-quinolin-4-yloxy)-benzooxazol-2-yl]-((R)-1-phenyl-ethyl)-amine], the inhibition at 1 µM in experiment [1] came out at 99%; in experiment [2] (HEK293H cells), 71%; in experiment [3] (MNFS60 cells), 56%; at kinase domain of PDGFRβ it was 85%.

These data come from patent publication US8173689B2 (Novartis AG, priority 2006, dated 2012).
